Results published in patent US10760052B2, “Method of inhibiting tau phosphorylation” (priority 2012, dated 2020).
Like-named read-outs stand apart in the source and are kept apart here.

Target: T1, mu opiate receptor (MOR) (Rattus norvegicus, UniProt P33535)
T1 construct: from tissue; host or cells: striatum (membrane preparation)
Assay type: biochemical
Settings: for [35S]GTPγS binding, FLNA-Binding Compound as Agonist at 0.1 μM: 0.1 μM compound; for [35S]GTPγS binding, FLNA-Binding Compound as Agonist at 0.1 μM / [35S]GTPγS binding, FLNA-Binding Compound as Agonist at 1 μM: striatal membranes; for [35S]GTPγS binding, FLNA-Binding Compound as Agonist at 0.1 μM / [35S]GTPγS binding, FLNA-Binding Compound as Agonist at 1 μM + BFNA / [35S]GTPγS binding, FLNA-Binding Compound as Agonist at 1 μM: Series C-2; for [35S]GTPγS binding, FLNA-Binding Compound as Agonist at 1 μM + BFNA: 1 μM compound + 1 μM β-FNA (selective MOR antagonist); for [35S]GTPγS binding, FLNA-Binding Compound as Agonist at 1 μM: 1 μM compound; for MOR agonist activity ([35S]GTPγS binding), compound as agonist: preliminary study, average of two runs

[1] = [35S]GTPγS binding to Gαo in striatal membranes, compound 0.1 μM
[2] = [35S]GTPγS binding to Gαo in striatal membranes, compound 1 μM
[3] = [35S]GTPγS binding to Gαo in striatal membranes, compound 1 μM plus 1 μM β-funaltrexamine (MOR antagonist)

T1 sequence (P33535 whole entry): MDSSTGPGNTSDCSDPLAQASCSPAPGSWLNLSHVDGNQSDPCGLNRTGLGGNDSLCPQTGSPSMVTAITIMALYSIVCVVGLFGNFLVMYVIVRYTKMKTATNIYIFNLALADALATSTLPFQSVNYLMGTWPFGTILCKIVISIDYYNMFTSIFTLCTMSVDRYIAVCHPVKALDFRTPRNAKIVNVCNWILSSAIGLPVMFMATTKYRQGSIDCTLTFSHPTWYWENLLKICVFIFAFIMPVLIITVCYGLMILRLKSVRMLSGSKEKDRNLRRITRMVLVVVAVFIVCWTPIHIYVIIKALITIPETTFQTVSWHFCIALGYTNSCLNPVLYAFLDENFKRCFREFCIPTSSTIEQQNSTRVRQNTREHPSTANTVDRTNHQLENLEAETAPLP

Row | SMILES | % DAMGO (0.1 μM) | % DAMGO (1 μM) | % DAMGO + BFNA | Concentration of FLNA-Binding Compound as Agonist 0.1 μM [1] | Concentration of FLNA-Binding Compound as Agonist 1 μM [2] | Concentration of FLNA-Binding Compound as Agonist 1 μM + BFNA [3] | Concentration of FLNA-Binding Compound as Agonist 0.1 μM | Concentration of FLNA-Binding Compound as Agonist 1 μM | Concentration of FLNA-Binding Compound as Agonist 1 μM + BFNA | [35S]GTPγS binding, FLNA-Binding Compound as Agonist at 0.1 μM | [35S]GTPγS binding, FLNA-Binding Compound as Agonist at 1 μM + BFNA | [35S]GTPγS binding, FLNA-Binding Compound as Agonist at 1 μM | MOR agonist activity ([35S]GTPγS binding), compound as agonist (0.1 μM) | MOR agonist activity ([35S]GTPγS binding), compound as agonist (1 μM + βNFA) | MOR agonist activity ([35S]GTPγS binding), compound as agonist (1 μM)
1 | Cc1ccccc1S(=O)(=O)N1CCC2(CC1)OCCN2S(=O)(=O)c1ccccc1C [Compound C0015] | 78.5% | 78.9% | 193.0% | 138.7% | 204.7% | 126.8% | – | – | – | – | – | – | – | – | –
2 | O=S(=O)(c1ccc(Cl)cc1)N1CCC2(CC1)OCCN2S(=O)(=O)c1ccc(Cl)cc1 [Compound C0067] | 82.9% | 81.5% | 97.1% | 142.7% | 179.0% | 33.5% | – | – | – | – | – | – | – | – | –
3 | CC1CCN(CC(O)COC2CC(C)CCC2C(C)C)CC1 (stereo not drawn) [Compound A0006] | 113.8% | 82.9% | 68.7% | 170.0% | 190.9% | 18.2% | – | – | – | – | – | – | – | – | –
4 | CC1CCC(C(C)C)C(OCC(O)CN2CCCCCC2)C1 (stereo not drawn) [Compound A0013] | 57.8% | 63.6% | 131.1% | 102.1% | 164.8% | 86.1% | – | – | – | – | – | – | – | – | –
5 | CC1CCC(C(C)C)C(OCC(O)CN2CCCCC2)C1 (stereo not drawn) [Compound A0005] | 105.0% | 89.6% | 45.1% | 179.7% | 239.2% | 23.5% | – | – | – | – | – | – | – | – | –
6 | O=C(c1ccc([N+](=O)[O-])cc1)N1CCC2(CC1)OCCN2S(=O)(=O)c1ccc([N+](=O)[O-])cc1 [Compound C0033] | 85.9% | 80.6% | 235.0% | 134.5% | 186.4% | 76.6% | – | – | – | – | – | – | – | – | –
7 | CC(=O)c1ccc(S(=O)(=O)N2CCC3(CC2)NC(=O)CN3S(=O)(=O)c2ccc(C(C)=O)cc2)cc1 [Compound C0064] | 124.2% | 159.1% | 110.4% | 213.8% | 349.6% | 38.1% | – | – | – | – | – | – | – | – | –
8 | CC1CN(CC(O)COc2ccc(Br)c(Cl)c2)CC(C)O1 (stereo not drawn) [Compound A0045] | 73.3% | 99.3% | 134.2% | 143.9% | 274.2% | 99.2% | – | – | – | – | – | – | – | – | –
9 | O=C(OCc1ccccc1)c1ccc(S(=O)(=O)N2CCC3(CC2)OCCN3S(=O)(=O)c2ccc(C(=O)OCc3ccccc3)cc2)cc1 [Compound C0042] | 98.9% | 119.2% | 666.3% | 167.1% | 260.9% | 110.6% | – | – | – | – | – | – | – | – | –
10 | NS(=O)(=O)c1ccc(S(=O)(=O)N2CCC3(CC2)OCCN3S(=O)(=O)c2ccc(S(N)(=O)=O)cc2)cc1 [Compound C0034] | 61.3% | 76.7% | 482.5% | – | – | – | 103.6% | 167.9% | 80.1% | – | – | – | – | – | –
11 | CC(=O)c1ccc(S(=O)(=O)N2CCOC23CCN(CC(=O)O)CC3)cc1 [Compound C0100M] | 103.6% | 110.6% | 411.8% | – | – | – | – | – | – | 173.6% | 195.6% | 245.9% | – | – | –
12 | COc1ccc(CCC(=O)CC2c3c(cc4c(c3OC)OCO4)CC[N+]2(C)C)c(OC)c1 (stereo not drawn) [Compound B0043] | 42.4% | 97.6% | 632.7% | 74.8% | 248.1% | 166.4% | – | – | – | – | – | – | – | – | –
13 | CC1CN(CC(O)COc2ccccc2C(C)C)CC(C)O1 (stereo not drawn) [Compound A0029] | 98.4% | 81.2% | 84.8% | 173.8% | 206.5% | 22.3% | – | – | – | – | – | – | – | – | –
14 | COc1c2c(cc3c1C(CC(=O)CCc1ccc(Cl)cc1)[N+](C)(C)CC3)OCO2 (stereo not drawn) [Compound B0017] | 58.9% | 45.6% | 75.2% | 99.6% | 122.0% | 49.6% | – | – | – | – | – | – | – | – | –
15 | COc1ccc(S(=O)(=O)N2CCC3(CC2)OCCN3S(=O)(=O)c2ccc(OC)c(OC)c2)cc1OC [Compound C0049] | 73.5% | 90.1% | 184.1% | 106.6% | 210.0% | 81.0% | – | – | – | – | – | – | – | – | –
16 | O=S(=O)(c1ccc(F)c(F)c1)N1CCC2(CC1)OCCN2S(=O)(=O)c1ccc(F)c(F)c1 [Compound C0072] | 100.3% | 117.9% | 194.5% | 172.7% | 259.1% | 67.1% | – | – | – | – | – | – | – | – | –
17 | COc1ccc(CCC(O)CC2c3c(cc4c(c3OC)OCO4)CCN2C)cc1 (stereo not drawn) [Compound B0048] | 104.8% | 87.8% | 298.5% | 185.1% | 223.4% | 78.5% | – | – | – | – | – | – | – | – | –
18 | CC1CCC(C(C)C)C(OCC(O)CN2CCN(CCc3ccccc3)CC2)C1 (stereo not drawn) [Compound A0020] | 100.9% | 88.7% | 194.2% | 168.6% | 217.4% | 67.4% | – | – | – | – | – | – | – | – | –
19 | Cc1ccc(S(=O)(=O)N2CCOC23CCN(CC2CC2)CC3)cc1 [Compound C0134M] | – | – | – | – | – | – | – | – | – | – | – | – | 150.7% | 53.2% | 224.0%
20 | COc1ccc(CCCCC2c3c(cc4c(c3OC)OCO4)CC[N+]2(C)C)cc1 (stereo not drawn) [Compound B0056] | 98.9% | 113.6% | 158.9% | 174.7% | 288.8% | 41.8% | – | – | – | – | – | – | – | – | –
21 | COc1ccc(S(=O)(=O)N2CCSC23CCNCC3)cc1 [S-C0027] | 74.2% | 84.4% | 98.1% | – | – | – | – | – | – | 156.2% | 56.2% | 286.8% | – | – | –
